Test results reported in ChEMBL document CHEMBL1201862, “PubChem BioAssay data set” (2004).
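Method: 48-hour compound exposure of cells in 96-well plates, five concentrations, linear interpolation of endpoints. Here, GI50 denotes the concentration required for 50% inhibition of growth.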 The source made the active and inactive calls. No stated cut-off is given here; in the data, active = GI50 up to about 1.1 µM and inactive = higher.

Key:
Assay in all cases: NCI anticancer screen, dose series, 48 h
[1] = test system: 786-0
[2] = test system: CAKI-1
[3] = test system: HCT-116
[4] = test system: HOP-62
[5] = test system: IGROV-1
[6] = test system: K562
[7] = test system: MDA-MB-435
[8] = test system: MDA-N
[9] = test system: NCI-H226
[10] = test system: NCI-H23
[11] = test system: NCI-H522
[12] = test system: OVCAR-3
[13] = test system: RPMI-8226
[14] = test system: SF-268
[15] = test system: SF-295
[16] = test system: SK-MEL-28
[17] = test system: SK-MEL-2
[18] = test system: SNB-19
[19] = test system: SNB-75
[20] = test system: UACC-62

Measured: GI50

CC(C)(C)c1ccc(-c2nnc(-c3cc(C#N)cc(-c4nnc(-c5ccc(C(C)(C)C)cc5)o4)c3)o2)cc1
inactive: [1] 50.2 µM | [2] > 100 µM | [3] > 100 µM | [4] 60.1 µM | [5] > 100 µM | [6] > 100 µM | [7] > 100 µM | [8] > 100 µM | [9] > 100 µM | [10] > 100 µM | [11] > 100 µM | [12] > 100 µM | [13] > 100 µM | [14] > 100 µM | [15] > 100 µM | [16] > 100 µM | [17] > 100 µM | [18] > 100 µM | [19] 88.9 µM | [20] > 100 µM

N#CC1(Nc2ccc(-c3ccc(NC4(C#N)CCCC4)cc3)cc2)CCCC1
inactive: [1] > 100 µM | [2] > 100 µM | [3] > 100 µM | [4] > 100 µM | [5] > 100 µM | [6] > 100 µM | [7] > 100 µM | [8] > 100 µM | [9] > 100 µM | [10] > 100 µM | [11] > 100 µM | [12] > 100 µM | [13] > 100 µM | [14] > 100 µM | [15] > 100 µM | [16] > 100 µM | [17] > 100 µM | [18] > 100 µM | [19] > 100 µM | [20] > 100 µM

CC12CC(=O)C3C(C(=O)C1)C32C (stereo not given)
inactive: [1] > 100 µM | [2] > 100 µM | [3] > 100 µM | [4] > 100 µM | [5] > 100 µM | [6] > 100 µM | [7] > 100 µM | [8] > 100 µM | [9] > 100 µM | [10] > 100 µM | [11] > 100 µM | [12] > 100 µM | [13] > 100 µM | [14] > 100 µM | [15] > 100 µM | [16] > 100 µM | [17] > 100 µM | [18] > 100 µM | [19] 45.3 µM | [20] > 100 µM

Cc1nc(Cl)c2sc(=S)n(-c3ccc(F)cc3)c2n1
inactive: [1] 2.45 µM | [2] 1.56 µM | [3] 1.75 µM | [4] 2.22 µM | [5] 1.74 µM | [6] 7.6 µM | [7] 2.59 µM | [8] 1.87 µM | [9] 17.4 µM | [10] 1.27 µM | [11] 2.84 µM | [12] 1.94 µM | [13] 3.4 µM | [14] 1.81 µM | [15] 10.9 µM | [16] 2.33 µM | [17] 12.8 µM | [18] 1.88 µM | [19] 1.44 µM | [20] 11.8 µM
